Assay results from US10160867B2, “Benzoxaborole-containing coating resistant to cellulose-supportable fungus” (THE PENN STATE RESEARCH FOUNDATION, priority 2015, dated 2018).
≈ marks a conversion by molar mass, not a printed value. Like-named read-outs stand apart in the source and are kept apart here.

How the values were obtained:
Assay type in all cases: cell-based
Alternaria alternata [1] = test: 3 day MIC, broth microdilution in 25% PDB; settings: 72 h, read-out: 3 day MIC
Experimental: (§1) Stock solutions (concentrations of between 4,000 μg/mL to 10,000 μg/mL; stored at −18° C.) of the above antifungals were prepared in dimethyl sulfoxide (DMSO). The stock solutions were further diluted into sterile 25% potato dextrose broth (PDB) so that the diluted solutions could be used for the antifungal susceptibility studies. This way, a typical microdilution study would reach a final ratio of about 0.5-2% v/v of DMSO in 25% PDB.
(§2) Spore inocula were prepared in sterile distilled water with 0.1% Tween® 20 (a polysorbate surfactant), and a hemocytometer was used to determine the spore density. Typically, the spore inoculum was prepared fresh prior to each study, and the inoculum was appropriately diluted to a final concentration of 0.4-1×10^5 spores/mL or colony-forming unit (CFU)/mL in each study. The spore suspension can be stored in a refrigerator at 4° C. for up to one week.
(§3) The studies were performed in flat bottom, 96-well microtiter plates (Greiner Bio-One, Frickenhausen, Germany).
(§4) Plates sealed with clear polyester film (VWR, Radnor, Pa.) were incubated at a temperature of about 25° C. The progress of fungal growth was monitored at 48 hours and 72 hours.

Penicillium corylophilum = test: 3 day MIC, broth microdilution in 25% PDB; settings: 72 h, read-out: 3 day MIC
Experimental: as §1, §2, §3, §4

Penicillium chrysogenum [2] = test: 3 day MIC, broth microdilution in 25% PDB; settings: 72 h, read-out: 3 day MIC
Experimental: as §1, §2, §3, §4

[3] = test system: Penicillium brevicompactum; test: 3 day MIC, broth microdilution in 25% PDB; settings: 72 h, read-out: 3 day MIC
Experimental: as §1, §2, §3, §4

Stachybotrys chartarum [4] = test: 3 day MIC, broth microdilution in 25% PDB; settings: for MIC: 72 h, read-out: 3 day MIC
Experimental: as §1, §2, §3, §4

Penicillium purpurogenum = test: 3 day MIC, broth microdilution in 25% PDB; settings: 72 h, read-out: 3 day MIC
Experimental: as §1, §2, §3, §4

Alternaria alternata [5] = test: Fungus resistance test for painted surfaces containing antifungal additives (defacement rating); design: key: 10 = no defacement, 0 = completely defaced
Experimental: (§5) A Defacement Rating is measured by estimating the percentage of surface defacement with 10 being no defacement and 0 begin completely defaced.
(§6) This test was used to evaluate the resistance of paint films containing antifungal additives to surface fungal growth.
(§7) Olympic® Home interior flat latex paint (PPG Industries, Pittsburgh, Pa.) and Valspar® QuikHide White flat interior paint (Valspar Corporation, Minneapolis, Minn.) were used for all studies unless otherwise noted. Stock solutions of the antifungal additives of interest were prepared in reagent grade dimethyl sulfoxide (DMSO; Alfa Aesar, Ward Hill, Mass.). Additives were spiked (by adding appropriate amounts of the antifungal stock solutions) into the liquid paint at specified concentrations. Samples of the additive-spiked paint were vigorously mixed with a vortex mixer for at least one minute to ensure uniform dispersion of the additive in the paint. […] Studies that use other brands of paint followed the same protocol as described for those using the Olympic® Home interior flat latex paint and Valspar® QuikHide paint.
(§8) Test surfaces were prepared in triplicate. In most cases, the tested conditions were repeated on a different date, again in triplicate. […] Two coats of paint were applied with a polyester brush to completely cover both faces of the filter paper disc, allowing at least four hours drying time between coats.
(§9) Nutrient-Salts Agar (NSA) medium was prepared according to ASTM method G21-13 in 100×15 mm sterile polystyrene petri dishes (VWR® Radnor, Pa.) with a solidified agar layer of about 3 to about 6 mm (⅛ to ¼ in.) in depth. The agar was allowed to solidify for at least 24 hours before being used. The painted test filter paper discs were placed in the center of the agar plates in a biosafety hood while wearing clean nitrile gloves.
(§10) The paint coatings were evaluated against three representative cellulose-supportable fungi: Stachybotrys chartarum, Penicillium chrysogenum, and Alternaria alternata. […] Fungal isolates of Alternaria alternata and Penicillium chrysogenum were obtained from the Plant Pathology and Environmental Microbiology Department at Penn State University.
(§11) A spore suspension of each of these fungi was prepared by pouring a 20-mL portion of autoclaved deionized water containing 0.01% Tween® 20 onto a subculture of each fungal species. Spores were counted with the use of a hemocytometer (Hausser Scientific, Horsham, Pa.) under a compound light microscope. Spore suspensions of Stachybotrys chartarum and Penicillium chrysogenum were diluted to 1×10^6 spores/mL with autoclaved deionized water. Spore suspensions of Alternaria alternata were used “as is” in the range of 200,000 to 400,000 spores/mL.
(§12) Painted test surfaces were inoculated with a spray bottle or with a sterile cotton-tipped applicator. To inoculate the sample with a spray bottle, the spore suspension was sprayed twice on the painted test discs with an autoclaved spray bottle that delivered approximately 0.14 g of fluid per spray. To inoculate the sample with a cotton-tipped applicator, an autoclaved cotton-tipped applicator was submerged in approximately 400 μL of the spore inoculum solution (spore concentrations described above) and applied evenly over the surface of the painted test surface twice. A fresh autoclaved cotton-tipped applicator was used for the application of each painted disc. All the paint studies with Alternaria alternata and Stachybotrys chartarum were inoculated using the spray bottle method. For studies with Penicillium chrysogenum using Olympic® Home paint, the spray bottle inoculation method was used. For studies with Penicillium chrysogenum using Valspar® QuikHide paint, the cotton-tipped applicator inoculation method was used.
(§13) After inoculation, the NSA agar plates were sealed with Parafilm®.

Penicillium chrysogenum [6] = test: as above; design: key: 10 = no defacement, 0 = completely defaced
Experimental: as §5, §6, §7, §8, §9, §10, §11, §12, §13

Stachybotrys chartarum [7] = test: as above; design: key: 10 = no defacement, 0 = completely defaced
Experimental: as §5, §6, §7, §8, §9, §10, §11, §12, §13

[8] = +100 μg/mL in Olympic Home paint, 7 days
[9] = +100 μg/mL in Olympic Home paint, 14 days
[10] = +100 μg/mL in Olympic Home paint, 21 days
[11] = +200 μg/mL in Olympic Home paint, 7 days
[12] = +200 μg/mL in Olympic Home paint, 14 days
[13] = +200 μg/mL in Olympic Home paint, 21 days
[14] = +200 μg/mL in Valspar QuikHide paint, 7 days
[15] = +200 μg/mL in Valspar QuikHide paint, 14 days
[16] = +200 μg/mL in Valspar QuikHide paint, 21 days
[17] = Penicillium purpurogenum, 25% PDB
[18] = +10 μg/mL in Olympic Home paint, 7 days
[19] = +10 μg/mL in Olympic Home paint, 14 days
[20] = +10 μg/mL in Olympic Home paint, 21 days

| Compound | Average defacement rating ± standard deviation (Alternaria alternata [5]; [8]) | Average defacement rating ± standard deviation (Alternaria alternata [5]; [9]) | Average defacement rating ± standard deviation (Alternaria alternata [5]; [10]) | Average defacement rating ± standard deviation (Penicillium chrysogenum [6]; [8]) | Average defacement rating ± standard deviation (Penicillium chrysogenum [6]; [9]) | Average defacement rating ± standard deviation (Penicillium chrysogenum [6]; [10]) | Average defacement rating ± standard deviation (Penicillium chrysogenum [6]; [11]) | Average defacement rating ± standard deviation (Penicillium chrysogenum [6]; [12]) | Average defacement rating ± standard deviation (Penicillium chrysogenum [6]; [13]) | Average defacement rating ± standard deviation (Penicillium chrysogenum [6]; [14]) | Average defacement rating ± standard deviation (Penicillium chrysogenum [6]; [15]) | Average defacement rating ± standard deviation (Penicillium chrysogenum [6]; [16]) | Average defacement rating ± standard deviation (Stachybotrys chartarum [7]; [8]) | Average defacement rating ± standard deviation (Stachybotrys chartarum [7]; [9]) | Average defacement rating ± standard deviation (Stachybotrys chartarum [7]; [10]) | MIC (Alternaria alternata [1]; 25% PDB) [µg/mL] | MIC (Penicillium corylophilum; 25% PDB) [µg/mL] | MIC ([3]; 25% PDB) [µg/mL] | MIC (Stachybotrys chartarum [4]; 25% PDB) [µg/mL] | MIC (Penicillium purpurogenum; [17]) [µg/mL] | further results |
| --- | --- | --- | --- | --- | --- | --- | --- | --- | --- | --- | --- | --- | --- | --- | --- | --- | --- | --- | --- | --- | --- |
| Oc1cc(Cl)ccc1Oc1ccc(Cl)cc1Cl [Triclosan, triclosan] | 0.1 ± 0.4 | 0.0 ± 0.0 | 0.0 ± 0.0 | 1.8 ± 1.4 | 0.0 ± 0.0 | 0.0 ± 0.0 | 9.3 ± 0.5 | 0.2 ± 0.4 | 0.0 ± 0.0 | 4.0 ± 3.6 | 0.0 ± 0.0 | 0.0 ± 0.0 | 0.8 ± 1.4 | 0.0 ± 0.0 | 0.0 ± 0.0 |  |  |  |  |  | MIC (Alternaria alternata [1]): 6.3 µg/mL (≈ 21.8 µM); MIC (Penicillium corylophilum): 3.13 µg/mL (≈ 10.8 µM); MIC (Penicillium chrysogenum [2]): 6.3 µg/mL (≈ 21.8 µM); MIC [3]: 3.1 µg/mL (≈ 10.7 µM); 3 day MIC (Stachybotrys chartarum [4]; 25% PDB): <0.1 µg/mL; MIC (Stachybotrys chartarum [4]): < 0.1 µg/mL; MIC (Penicillium purpurogenum; Penicillium): 3.13 µg/mL (≈ 10.8 µM) |
| OB1OCc2cc(F)ccc21 [Compound B9, 5-Fluoro-1,3-dihydro-2,1-benzoxaborol-1-ol] | 7.4±1.8 | 3.8 ± 0.9 | 3.8±0.9 | 3.7 ± 1.5 | 0.0 ± 0.0 | 0.0 ± 0.0 | 10.0 ± 0.0 | 9.8 ± 0.4 | 6.7 ± 3.9 | 10.0 ± 0.0 | 10.0 ± 0.0 | 9.7 ± 0.6 | 9.9±0.3 | 4.4 ± 2.9 | 2.0 ± 2.8 | 1.6 (≈ 10.5 µM) | 0.39 (≈ 2.57 µM) | 0.2 (≈ 1.32 µM) | 0.13 (≈ 0.856 µM) | 0.78 (≈ 5.13 µM) |  |
| CCCCCCCCn1sccc1=O [OIT, 2-Octyl-4-isothiazolin-3-one] | 8.1±0.3 | 6.9 ± 1.0 | 4.9±0.7 | 10.0 ± 0.0 | 10.0 ± 0.0 | 9.3 ± 1.5 | 10.0 ± 0.0 | 10.0 ± 0.0 | 9.8 ± 0.4 | 10.0 ± 0.0 | 10.0 ± 0.0 | 10.0 ± 0.0 | 9.9 ± 0.3 | 8.2 ± 2.5 | 6.9 ± 2.4 | 200 (≈ 937 µM) | < 0.1 | < 0.1 | 0.1 (≈ 0.469 µM) | < 0.1 | MIC (Penicillium chrysogenum [2]; 25% PDB): < 0.1 µg/mL |
| c1ccc2[nH]c(-c3cscn3)nc2c1 [Thiabendazole] | 0.0 ± 0.0 | 0.0 ± 0.0 | 0.0 ± 0.0 | 4.1 ± 0.0 | 0.4 ± 0.4 | 0.0 ± 0.0 | 9.3 ± 1.2 | 4.0 ± 4.7 | 1.7 ± 3.6 | 10.0 ± 0.0 | 9.3 ± 1.2 | 4.7 ± 4.6 | 1.3 ± 0.3 | 0.0 ± 0.0 | 0.0 ± 0.0 | 100 (≈ 497 µM) | 0.39 (≈ 1.94 µM) | 0.4 (≈ 1.99 µM) | 25 (≈ 124 µM) | 0.2 (≈ 0.994 µM) | MIC (Penicillium chrysogenum [2]; 25% PDB): 0.4 µg/mL (≈ 1.99 µM) |
| OB1OCc2cc(Cl)ccc21 [Compound B8, 5-chloro-1,3-dihydro-2,1-benzoxaborol-1-ol] | 9.9±0.4 | 8.1 ± 1.5 | 7.8±1.5 | 7.3 ± 1.3 | 0.0 ± 0.0 | 0.0 ± 0.0 | 10.0±0.0 | 9.5 ± 1.2 | 8.7 ± 2.3 |  |  |  | 9.9±0.4 | 8.1 ± 1.9 |  | 3.1 (≈ 18.4 µM) | 0.78 (≈ 4.63 µM) | 0.4 (≈ 2.38 µM) | 0.13 (≈ 0.772 µM) | 1.56 (≈ 9.26 µM) | Average defacement rating ± standard deviation (Alternaria alternata [5]; [18]): 5.0 ± 1.0; Average defacement rating ± standard deviation (Alternaria alternata [5]; [19]): 4.7 ± 1.2; Average defacement rating ± standard deviation (Alternaria alternata [5]; [20]): 4.7 ± 1.2; Average defacement rating ± standard deviation (Stachybotrys chartarum [7]; [18]): 5.7 ± 4.9; Average defacement rating ± standard deviation (Stachybotrys chartarum [7]; [19]): 0.0 ± 0.0; Average defacement rating ± standard deviation (Stachybotrys chartarum [7]; [20]): 0.0 ± 0.0 |
| O=C1C2CC=CCC2C(=O)N1SC(Cl)(Cl)Cl (centres unmarked) [Captan] | 0.1 ± 0.3 | 0.0 ± 0.0 | 0.0 ± 0.0 | 3.2 ± 1.8 | 0.0 ± 0.0 | 0.0 ± 0.0 |  |  |  |  |  |  | 2.9 ± 3.3 | 0.0 ± 0.0 | 0.0 ± 0.0 | 1.6 (≈ 5.32 µM) | 0.78 (≈ 2.59 µM) | 0.78 (≈ 2.59 µM) | 0.39 (≈ 1.3 µM) | 0.78 (≈ 2.59 µM) | MIC (Penicillium chrysogenum [2]; 25% PDB): 0.78 µg/mL (≈ 2.59 µM); Average defacement rating ± standard deviation (Alternaria alternata [5]; +100 μg/mL in Olympic Home paint, 7 days, listed as captan): 0.1±0.3 |
